Our source for the zone of inhibition values is ChEMBL document CHEMBL1159010, “Constituents of Azadirachta indica: isolation and structure elucidation of a new antibacterial tetranortriterpenoid, mahmoodin, and a new protolimonoid, naheedin” (1992).

Assay type in all cases: functional
Common to all, as to conditions: read-out: IZ

Assay [1] relates to Staphylococcus aureus. Briefly: Antimicrobial activity against Staphylococcus aureus at 10 mg.
The subject of assay [2] is Shigella sonnei. Put plainly: Antimicrobial activity against Shigella sonnei at 10 mg.
The test system of assay [3] is Streptococcus pyogenes. Briefly: Antimicrobial activity against Streptococcus pyogenes at 10 mg.
Assay [4] concerns Salmonella. Put plainly: Antimicrobial activity against Salmonella schotmuelleri at 10 mg.
Assay [5] concerns Corynebacterium xerosis. Briefly: Antimicrobial activity against Corynebacterium xerosis at 10 mg.
In assay [6] the test system is Enterococcus faecalis. Put plainly: Antimicrobial activity against Streptococcus faecalis at 10 mg.
Assay [7] has as its system Bacillus subtilis. Briefly: Antimicrobial activity against Bacillus subtilis at 10 mg.
Assay [8] relates to Klebsiella pneumoniae. Briefly: Antimicrobial activity against Klebsiella pneumoniae at 10 mg.
Assay [9] concerns Bacillus cereus. Put plainly: Antimicrobial activity against Bacillus cereus at 10 mg.

For the compound `CC(=O)O[C@@H]1C[C@H]2C(C)(C)C(=O)C=C[C@]2(C)[C@H]2CC[C@]3(C)C(=CC(=O)O[C@@]3(OCCO)c3ccoc3)[C@@]21C`, the zone of inhibition at 10000 µg/disc was 17 mm in assay [1]; 16 mm in assay [2]; 28 mm in [3]; 20 mm in assay [4]; 17 mm in assay [5]; 22 mm in [6]. In addition, the zone of inhibition at 10000 µg/disc in [7] turned out to be 20 mm; in [8], 15 mm; in [9], 18 mm.
